According to US6472348B1, “Pyridone derivatives and herbicides” (Kumiai Chemical Industry Co., Ltd., priority 1996, dated 2002):

Experiments:
[1] = test system: barnyardgrass (Ec); assay: Test Example 1: herbicidal effects by paddy field soil treatment; type: in vivo; details: 100 g of the active ingredient per 10 ares, 21st day after the application, index 0-5 of Table 47;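 further: grade of growth control; 5 = at least 90%; 4 = 70 to 90%; 3 = 50 to 70%; 2 = 30 to 50%; 1 = 10 to 30%; 0 = under 10%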
Summary of the method: (§1)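 Scoring of herbicidal effect came 21 days after application of 100 g active ingredient per 10 ares to flooded (3 cm) paddy-soil pots sown with barnyardgrass, monochoria and bulrush, kept in a greenhouse.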

[2] = test system: bulrush (Sc); assay: as above; type: in vivo; details: 100 g of the active ingredient per 10 ares, 21st day after the application, index 0-5 of Table 47;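 further: grade of growth control; 5 = at least 90%; 4 = 70 to 90%; 3 = 50 to 70%; 2 = 30 to 50%; 1 = 10 to 30%; 0 = under 10%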
Summary of the method: as §1

[3] = test system: monochoria (Mo); assay: as above; type: in vivo; details: 100 g of the active ingredient per 10 ares, 21st day after the application, index 0-5 of Table 47;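 further: grade of growth control; 5 = at least 90%; 4 = 70 to 90%; 3 = 50 to 70%; 2 = 30 to 50%; 1 = 10 to 30%; 0 = under 10%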
Summary of the method: as §1

[4] = test system: Digitaria ciliaris (Di); assay: Test Example 2: herbicidal effects by upland field soil treatment; type: in vivo; details: 100 g of the active ingredient per 10 ares, evaluated on the 21st day after application;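 further: grade of growth control; 5 = at least 90%; 4 = 70 to 90%; 3 = 50 to 70%; 2 = 30 to 50%; 1 = 10 to 30%; 0 = under 10%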
Source text: (§2) (Test on Herbicidal Effects by Upland Field Soil Treatment)

[5] = test system: barnyardgrass (Ec); assay: as above; type: in vivo; details: 100 g of the active ingredient per 10 ares, evaluated on the 21st day after application
Source text: as §2

[6] = test system: common lambsquarters (Ch); assay: as above; type: in vivo; details: 100 g of the active ingredient per 10 ares, evaluated on the 21st day after application
Source text: as §2

[7] = test system: pale smartweed (Po); assay: as above; type: in vivo; details: 100 g of the active ingredient per 10 ares, evaluated on the 21st day after application
Source text: as §2

[8] = test system: rice flatsedge (Ci); assay: as above; type: in vivo; details: 100 g of the active ingredient per 10 ares, evaluated on the 21st day after application
Source text: as §2

[9] = test system: slender amaranth (Am); assay: as above; type: in vivo; details: 100 g of the active ingredient per 10 ares, evaluated on the 21st day after application
Source text: as §2

[10] = test system: Diaitaria ciliaris (Di); assay: Test Example 3: herbicidal effects by upland field foliage treatment; type: in vivo; set-up: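 grade of growth control; 5 = at least 90%; 4 = 70 to 90%; 3 = 50 to 70%; 2 = 30 to 50%; 1 = 10 to 30%; 0 = under 10%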; details: 100 g active ingredient per 10 ares, evaluated 14th day after treatment
Summary of the method: (§3)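 Weeds were sown in sand-filled pots (surface area: 120 cm^2), covered with soil and grown in a greenhouse for 2 weeks before foliar treatment. Plants then stayed in the greenhouse, and herbicidal effect was scored against graded standards on the 14th day after treatment.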

[11] = test system: barnyardgrass (Ec); assay: as above; type: in vivo; set-up: scale not given here; details: 100 g active ingredient per 10 ares, evaluated 14th day after treatment
Summary of the method: as §3

[12] = test system: common lambsquarters (Ch); assay: as above; type: in vivo; set-up: scale not given here; details: 100 g active ingredient per 10 ares, evaluated 14th day after treatment
Summary of the method: as §3

[13] = test system: pale smartweed (Po); assay: as above; type: in vivo; set-up: scale not given here; details: 100 g active ingredient per 10 ares, evaluated 14th day after treatment
Summary of the method: as §3

[14] = test system: rice flatsedge (Ci); assay: as above; type: in vivo; set-up: scale not given here; details: 100 g active ingredient per 10 ares, evaluated 14th day after treatment
Summary of the method: as §3

[15] = test system: slender amaranth (Am); assay: as above; type: in vivo; set-up: scale not given here; details: 100 g active ingredient per 10 ares, evaluated 14th day after treatment
Summary of the method: as §3

[16] = test system: wheat (Tr); assay: Test Example 9: crop plant selectivity by upland field foliage treatment (wheat), phytotoxicity; details: dose 1.6 g ai/10a, 14th day after treatment
Summary of the method: (§4)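 Sand-filled pot, wheat + weeds co-sown; greenhouse 2 wk, then foliage treatment; greenhouse culture continued; visual scoring of weed control and crop injury at 14 d post-treatment per grading scale.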

[17] = test system: China jute (Ab); assay: Test Example 9: crop plant selectivity by upland field foliage treatment (wheat), herbicidal effects; type: in vivo; set-up: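 grade of growth control; 5 = at least 90%; 4 = 70 to 90%; 3 = 50 to 70%; 2 = 30 to 50%; 1 = 10 to 30%; 0 = under 10%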; details: dose 1.6 g ai/10a, 14th day after treatment
Summary of the method: as §4

[18] = test system: common lambsquarters (Ch); assay: as above; type: in vivo; set-up: scale not given here; details: dose 1.6 g ai/10a, 14th day after treatment
Summary of the method: as §4

[19] = test system: pale smartweed (Po); assay: as above; type: in vivo; set-up: scale not given here; details: dose 1.6 g ai/10a, 14th day after treatment
Summary of the method: as §4

[20] = test system: slender amaranth (Am); assay: as above; type: in vivo; set-up: scale not given here; details: dose 1.6 g ai/10a, 14th day after treatment
Summary of the method: as §4

[21] = test system: soybean (Gl); assay: Test Example 10: crop plant selectivity by upland field foliage treatment (soybean), phytotoxicity; details: dose 1.6 g ai/10a, 14th day after treatment
Protocol: (§5) (Test on Crop Plant Selectivity by Upland Field Foliage Treatment)
(§6) In a plastic pot (surface area: 600 cm^2) filled with sand, soybean (Gl), pale smartweed (Po), slender amaranth (Am), common lambsquarters (Ch) and China jute (Ab) were sown and cultured in a green house for 2 weeks. […] The plants were then cultured in a green house, and the evaluation of the herbicidal effects and phytotoxicity was conducted on the 14th day after the treatment in accordance with the standards as identified in Table 47.

[22] = test system: China jute (Ab); assay: Test Example 10: crop plant selectivity by upland field foliage treatment (soybean), herbicidal effects; type: in vivo; details: dose 1.6 g ai/10a, 14th day after treatment
Protocol: as §5, §6

[23] = test system: common lambsquarters (Ch); assay: as above; type: in vivo; details: dose 1.6 g ai/10a, 14th day after treatment
Protocol: as §5, §6

[24] = test system: pale smartweed (Po); assay: as above; type: in vivo; details: dose 1.6 g ai/10a, 14th day after treatment
Protocol: as §5, §6

[25] = test system: slender amaranth (Am); assay: as above; type: in vivo; details: dose 1.6 g ai/10a, 14th day after treatment
Protocol: as §5, §6

[26] = test system: corn (Ze); assay: Test Example 11: crop plant selectivity by upland field foliage treatment (corn), phytotoxicity; details: upland field foliage treatment, dose 1.6 g ai/10a, 14th day after treatment
Summary of the method: (§7)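 Corn with pale smartweed, slender amaranth, common lambsquarters and China jute sown in sand-filled pots and grown 2 weeks in a greenhouse before foliage treatment. Herbicidal effect and crop phytotoxicity scored on day 14 after treatment against a rating standard.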

[27] = test system: China jute (Ab); assay: Test Example 11: crop plant selectivity by upland field foliage treatment (corn), herbicidal effects; type: in vivo; set-up: scale not given here; details: upland field foliage treatment (corn test), dose 1.6 g ai/10a, 14th day after treatment
Summary of the method: as §7

[28] = test system: common lambsquarters (Ch); assay: as above; type: in vivo; set-up: scale not given here; details: upland field foliage treatment (corn test), dose 1.6 g ai/10a, 14th day after treatment
Summary of the method: as §7

[29] = test system: pale smartweed (Po); assay: as above; type: in vivo; set-up: scale not given here; details: upland field foliage treatment (corn test), dose 1.6 g ai/10a, 14th day after treatment
Summary of the method: as §7

[30] = test system: slender amaranth (Am); assay: as above; type: in vivo; set-up: scale not given here; details: upland field foliage treatment (corn test), dose 1.6 g ai/10a, 14th day after treatment
Summary of the method: as §7

melting point: 99 to 101 °C
Compound: C#CCOCc1cc(-c2ccc(C(F)(F)F)n(C)c2=O)c(F)cc1Cl [Compound No. 1-199, 3-(4-chloro-2-fluoro-5-propargyloxymethylphenyl)-1-methyl-6-trifluoromethyl-2(1H)-pyridone]
Herbicidal effects Ec [1]: 5
Herbicidal effects Sc [2]: 5
Herbicidal effects Mo [3]: 5
Herbicidal effects Di [4]: 5
Herbicidal effects Ec [5]: 5
Herbicidal effects Ch [6]: 5
Herbicidal effects Po [7]: 5
Herbicidal effects Ci [8]: 5
Herbicidal effects Am [9]: 5
Herbicidal effects Di [10]: 5
Herbicidal effects Ec [11]: 4
Herbicidal effects Ch [12]: 5
Herbicidal effects Po [13]: 5
Herbicidal effects Ci [14]: 5
Herbicidal effects Am [15]: 5
Phytotoxicity Tr [16]: 2
Herbicidal effects Ab [17]: 5
Herbicidal effects Ch [18]: 5
Herbicidal effects Po [19]: 5
Herbicidal effects Am [20]: 5
Phytotoxicity Gl [21]: 2
Herbicidal effects Ab [22]: 5
Herbicidal effects Ch [23]: 5
Herbicidal effects Po [24]: 5
Herbicidal effects Am [25]: 5
Phytotoxicity Ze [26]: 2
Herbicidal effects Ab [27]: 5
Herbicidal effects Ch [28]: 5
Herbicidal effects Po [29]: 5
Herbicidal effects Am [30]: 5
